“Also recorded” adds a separate entry of the source.
Experiments:
CYP3A4 = CYP3A4 induction by 6β-OH-cortisol/cortisol ratio in urine; type: in vivo, human; details: 50 mg, 100 mg and 200/150 mg once daily; days -1 and 13
Procedure: The potential of CYP3A4 induction was assessed by means of the ratio of 6β‐OH‐cortisol to cortisol in urine.[10], [11], [12], [13], [14] Cortisol concentrations in urine were determined by using a radioimmunoassay method based on competition between labeled antigens and antigens on the specific sites of the antiserum coated on the tubes. At the end of the incubation period, the liquid in the tubes was removed by aspiration and the radioactivity (^125I‐cortisol) was measured using a gamma counter (Packard Cobra II auto‐gamma counter; Packard Instrument Co Inc, Meriden, Connecticut). […] The best curve was determined by the polynomial second‐order equation. The limit of quantification of the cortisol assay for the urine samples was set at 10 ng/mL.
6β‐OH‐cortisol concentrations in urine were determined by using a 2‐step, quantitative competitive enzyme immunoassay technique. […] The calibration equation was computed using SoftMax Pro software (Molecular Devices, Sunnyvale, California) by plotting the log of 6β‐OH‐cortisol concentrations versus the A/Ao (when A was standard or sample 6β‐OH‐cortisol absorbance and Ao was the standard 0 absorbance). The best line was determined by using the 4‐parameter logistic model. The limit of quantification of the 6β‐OH‐cortisol assay for the urine samples was set at 50 pg/mL. […]

[1] = Safety and tolerability, study 2; type: in vivo, human
Procedure: (§1) Safety and tolerability were assessed on the basis of adverse events (AEs), which were monitored throughout both studies. Additional safety assessments included vital signs (including supine [and standing in study 2] heart rate, systolic and diastolic blood pressure, and oral body temperature), 12‐lead electrocardiogram (ECG), clinical laboratory tests (hematology, coagulation [study 2 only], serum/plasma chemistry, urinalysis, urine drug screen, serology, and alcohol breath test), and a comprehensive physical examination. In the SAD part of study 1, clinical laboratory tests, physical examination, and vital signs were assessed at the screening visit, at the time of dosing (0 hours after dose), 24 hours after dosing and at follow‐up (7 to 10 days after the final dose). Vital signs were additionally observed 2 hours after dosing, and the 12‐lead ECG was additionally completed at 1, 2, 6, 8, and 12 hours after dosing. In the MAD part of study 1, all additional safety assessments were performed at screening; days 1, 2, 8, 14, and 15; and at follow‐up. In study 2, additional safety assessments were performed at screening (between 21 and 2 days before the first study drug administration); days 1, 2, 5, 10, 14, 15, and 20 (clinical laboratory tests were not performed on day 20); at early discontinuation; and at follow‐up. For study 2, renal function tests (measurement of estimated creatinine clearance rate using the Cockcroft‐Gault equation) were also included in the clinical laboratory tests for safety assessment.
(§2) In both studies, the safety analysis was descriptive and focused on changes from baseline and treatment‐emergent findings.

[2] = Safety across both studies and all dose groups; type: in vivo, human; details: both studies
Procedure: as §1, §2

CYP2C19 = tested on: CYP2C19; parameters: method as in data on file at Galapagos; details: in vitro; ref data on file at Galapagos; cited from earlier work
[3] = parameters: method as in data on file at Galapagos, 17; details: separate study; ref data on file at Galapagos, 17; cited from earlier work
[4] = part 1, 50 mg QD, 18–50 years (n = 6)
[5] = part 1, 50 mg QD, 65–74 years (n = 6)
[6] = part 1, 50 mg QD, ≥ 75 years (n = 6)
[7] = part 2, 250 mg loading dose + 50 mg QD, 65–74 years (n = 8)

O=c1nc(OC[C@@H]2COCCO2)cc2n1CCc1cc(C#CC3CC3)ccc1-2 [GLPG1205, 9‐cyclopropylethynyl‐2‐((S)‐1‐[1,4]dioxan‐2‐ylmethoxy)‐6,7‐dihydropyrimido[6,1‐a]isoquinolin‐4‐one]
6β‐OH‐cortisol/cortisol ratio in urine (CYP3A4): No significant day and dose effects; also recorded: did not impact
Any TEAE [1, 4]: 5 (83.3) number of subjects (%)
Diarrhea (TEAE) [1, 4]: 0 number of subjects (%)
Erectile dysfunction (TEAE) [1, 4]: 2 (33.3) number of subjects (%)
Gastrointestinal disorders (TEAE) [1, 4]: 2 (33.3) number of subjects (%)
Headache (TEAE) [1, 4]: 3 (50.0) number of subjects (%)
Infections and infestations (TEAE) [1, 4]: 1 (16.7) number of subjects (%)
Nasopharyngitis (TEAE) [1, 4]: 1 (16.7) number of subjects (%)
Nausea (TEAE) [1, 4]: 2 (33.3) number of subjects (%)
Nervous system disorders (TEAE) [1, 4]: 3 (50.0) number of subjects (%)
Reproductive system and breast disorders (TEAE) [1, 4]: 2 (33.3) number of subjects (%)
Vomiting (TEAE) [1, 4]: 0 number of subjects (%)
Any TEAE [1, 5]: 5 (83.3) number of subjects (%)
Diarrhea (TEAE) [1, 5]: 0 number of subjects (%)
Erectile dysfunction (TEAE) [1, 5]: 0 number of subjects (%)
Gastrointestinal disorders (TEAE) [1, 5]: 1 (16.7) number of subjects (%)
Headache (TEAE) [1, 5]: 3 (50.0) number of subjects (%)
Infections and infestations (TEAE) [1, 5]: 3 (50.0) number of subjects (%)
Nasopharyngitis (TEAE) [1, 5]: 2 (33.3) number of subjects (%)
Nausea (TEAE) [1, 5]: 0 number of subjects (%)
Nervous system disorders (TEAE) [1, 5]: 4 (66.7) number of subjects (%)
Reproductive system and breast disorders (TEAE) [1, 5]: 0 number of subjects (%)
Vomiting (TEAE) [1, 5]: 0 number of subjects (%)
Any TEAE [1, 6]: 3 (50.0) number of subjects (%)
Diarrhea (TEAE) [1, 6]: 0 number of subjects (%)
Erectile dysfunction (TEAE) [1, 6]: 0 number of subjects (%)
Gastrointestinal disorders (TEAE) [1, 6]: 1 (16.7) number of subjects (%)
Headache (TEAE) [1, 6]: 0 number of subjects (%)
Infections and infestations (TEAE) [1, 6]: 0 number of subjects (%)
Nasopharyngitis (TEAE) [1, 6]: 0 number of subjects (%)
Nausea (TEAE) [1, 6]: 0 number of subjects (%)
Nervous system disorders (TEAE) [1, 6]: 0 number of subjects (%)
Polyuria (TEAE) [1, 6]: 2 (33.3) 2 (33.3) number of subjects (%)
Renal and urinary disorders (TEAE) [1, 6]: 2 (33.3) 2 (33.3) number of subjects (%)
Reproductive system and breast disorders (TEAE) [1, 6]: 0 number of subjects (%)
Vomiting (TEAE) [1, 6]: 0 number of subjects (%)
Any TEAE [1, 7]: 7 (87.5) number of subjects (%)
Diarrhea (TEAE) [1, 7]: 1 (12.5) number of subjects (%)
Erectile dysfunction (TEAE) [1, 7]: 0 number of subjects (%)
Gastrointestinal disorders (TEAE) [1, 7]: 4 (50.0) number of subjects (%)
Headache (TEAE) [1, 7]: 1 (12.5) number of subjects (%)
Infections and infestations (TEAE) [1, 7]: 0 number of subjects (%)
Nasopharyngitis (TEAE) [1, 7]: 0 number of subjects (%)
Nausea (TEAE) [1, 7]: 3 (37.5) number of subjects (%)
Nervous system disorders (TEAE) [1, 7]: 1 (12.5) number of subjects (%)
Polyuria (TEAE) [1, 7]: 0 number of subjects (%)
Renal and urinary disorders (TEAE) [1, 7]: 0 number of subjects (%)
Reproductive system and breast disorders (TEAE) [1, 7]: 0 number of subjects (%)
Vomiting (TEAE) [1, 7]: 2 (25.0) number of subjects (%)
nausea of mild intensity ([1]; part 2, loading dose): 2 n
nausea of moderate intensity ([1]; part 2, loading dose): 1 n
ECG and vital signs [2]: no clinically significant trends
deaths or serious AEs [2]: No deaths or serious AEs occurred
subjects with headache (TEAE) ([2]; all GLPG1205 dose groups): 17 subjects
subjects with nausea (TEAE) ([2]; all GLPG1205 dose groups): 12 subjects
subjects with treatment-emergent AEs ([2]; all GLPG1205 dose groups): 44 subjects
inhibition of CYP2C19 (CYP2C19): weak inhibition
food effect on GLPG1205 exposure [3]: no food effect

— PMC8453901, “GLPG1205, a GPR84 Modulator: Safety, Pharmacokinetics, and Pharmacodynamics in Healthy Subjects” (Clinical Pharmacology in Drug Development, 2021)
